Experimental data from article PMC7905942 (ACS Omega, 2021).

How the values were obtained:
[1] = tested on: NCI-H23 (lung cancer) cells; test: SRB cytotoxicity assay, NCI-H23; assay type: cell-based; conditions: Homo sapiens, NCI-H23, 48 h, read-out: Cytotoxicity IC50, NCI-H23
[2] = tested on: PC3 (prostate cancer) cells; test: SRB cytotoxicity assay, PC3; assay type: cell-based; conditions: Homo sapiens, 48 h, read-out: Cytotoxicity IC50, PC3
[3] = biological target: T1, HDAC6 (Homo sapiens, UniProt Q9UBN7); test: HDAC6 enzyme assay; assay type: biochemical
T1 sequence (Q9UBN7 1-1215): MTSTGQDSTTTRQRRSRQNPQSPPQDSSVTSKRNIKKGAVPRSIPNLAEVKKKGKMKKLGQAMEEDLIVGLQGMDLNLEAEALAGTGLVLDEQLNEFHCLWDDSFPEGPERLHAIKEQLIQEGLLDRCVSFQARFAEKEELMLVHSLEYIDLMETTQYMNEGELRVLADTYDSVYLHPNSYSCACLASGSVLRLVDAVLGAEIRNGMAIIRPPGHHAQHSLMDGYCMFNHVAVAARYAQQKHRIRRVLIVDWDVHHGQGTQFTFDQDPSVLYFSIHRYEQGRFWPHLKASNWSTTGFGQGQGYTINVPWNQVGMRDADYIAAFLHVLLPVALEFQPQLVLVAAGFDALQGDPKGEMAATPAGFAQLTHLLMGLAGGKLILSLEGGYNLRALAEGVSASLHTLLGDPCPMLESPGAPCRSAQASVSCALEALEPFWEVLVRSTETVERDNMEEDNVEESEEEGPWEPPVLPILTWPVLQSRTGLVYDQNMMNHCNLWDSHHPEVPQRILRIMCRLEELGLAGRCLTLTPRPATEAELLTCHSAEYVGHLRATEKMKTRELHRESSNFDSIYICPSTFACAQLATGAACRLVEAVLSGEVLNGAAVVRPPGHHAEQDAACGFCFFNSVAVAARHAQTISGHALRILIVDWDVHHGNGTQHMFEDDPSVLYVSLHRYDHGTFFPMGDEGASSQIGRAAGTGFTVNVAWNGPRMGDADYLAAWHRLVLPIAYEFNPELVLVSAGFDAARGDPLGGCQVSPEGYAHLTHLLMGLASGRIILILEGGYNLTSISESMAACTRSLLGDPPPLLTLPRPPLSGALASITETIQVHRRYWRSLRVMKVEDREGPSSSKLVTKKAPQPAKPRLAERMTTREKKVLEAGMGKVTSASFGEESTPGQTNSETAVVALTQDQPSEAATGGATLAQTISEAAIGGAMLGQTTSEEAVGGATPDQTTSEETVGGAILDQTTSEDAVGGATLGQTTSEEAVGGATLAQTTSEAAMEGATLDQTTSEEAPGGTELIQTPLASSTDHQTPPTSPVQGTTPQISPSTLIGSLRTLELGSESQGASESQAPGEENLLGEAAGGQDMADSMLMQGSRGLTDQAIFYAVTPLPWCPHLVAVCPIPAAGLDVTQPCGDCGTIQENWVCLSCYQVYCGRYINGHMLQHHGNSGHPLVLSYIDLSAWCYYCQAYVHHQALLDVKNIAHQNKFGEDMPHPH

[4] = tested on: SW620 (colon cancer) cells; test: SRB cytotoxicity assay, SW620; assay type: cell-based; conditions: Homo sapiens, SW-620, 48 h, read-out: Cytotoxicity IC50, SW620
[5] = tested on: SW620, PC3 and NCI-H23 cancer cell lines; test: SRB cytotoxicity, range over three human cancer cell lines; assay type: cell-based; conditions: read-out: Cytotoxicity IC50 values (range over cell lines)
[6] = tested on: HDAC (Hela cell nuclear extract); assay type: biochemical; conditions: for fold higher HDAC IC50 than that of SAHA: Hela cell nuclear extract; for fold more potent than SAHA: HDAC inhibitory activity and cytotoxicity together
[7] = tested on: SW620 human colon cancer cells; test: Annexin V-FITC/PI dual staining apoptosis assay; assay type: cell-based; conditions: 10 μM, 24 h
[8] = tested on: SW620 human colon cancer cells; test: Cell cycle analysis by flow cytometry; assay type: cell-based; conditions: compounds 10 μM, SAHA 1 μM, 24 h, vehicle 6.29%

SMILES	IC50 [3] [nM]	IC50 [1] [nM]	IC50 [2] [nM]	IC50 [4] [nM]	also measured
O=C(/C=C/c1ccc2ncn(Cc3ccc(Cl)cc3)c(=O)c2c1)NO [Compound 9l, (E)-3-(3-(4-Chlorobenzyl)-4-oxo-3,4-dihydroquinazolin-6-yl)-N-hydroxyacrylamide]		1660 ± 28	1370 ± 30		
Cc1ccc(Cn2cnc3ccc(/C=C/C(=O)NO)cc3c2=O)cc1 [Compound 9m, (E)-N-Hydroxy-3-(3-(4-methylbenzyl)-4-oxo-3,4-dihydroquinazolin-6-yl)acrylamide]		1380 ± 30	1260 ± 26		
O=C(/C=C/c1ccc2ncn(Cc3cccc(F)c3)c(=O)c2c1)NO [Compound 9j, (E)-3-(3-(3-Fluorobenzyl)-4-oxo-3,4-dihydroquinazolin-6-yl)-N-hydroxyacrylamide]		1669 ± 5	1280 ± 13	2060 ± 58	
O=C(/C=C/c1cccc(S(=O)(=O)Nc2ccccc2)c1)NO [Belinostat, belinostat, reference compound]			2530 ± 170		
CCn1cnc2ccc(/C=C/C(=O)NO)cc2c1=O [Compound 9a, (E)-3-(3-Ethyl-4-oxo-3,4-dihydroquinazolin-6-yl)-N-hydroxyacrylamide]		5787 ± 3			IC50 [5]: 3200 to 7040 nM; fold higher HDAC IC50 than that of SAHA [6]: approximately 10 fold
O=C(/C=C/c1ccc2c(=O)n(CC3CCCCC3)cnc2c1)NO [Compound 10g, (E)-3-(3-(Cyclohexylmethyl)-4-oxo-3,4-dihydroquinazolin-7-yl)-N-hydroxyacrylamide]			2540 ± 26		fold lower HDAC6 IC50 than IC50 in Hela nuclear extract assay ([3]; HDAC6 vs total HDAC extract): 10 fold
O=C(/C=C/c1ccc2ncn(Cc3ccccc3F)c(=O)c2c1)NO [Compound 9i, (E)-3-(3-(2-Fluorobenzyl)-4-oxo-3,4-dihydroquinazolin-6-yl)-N-hydroxyacrylamide]		659 ± 20			IC50 [5]: 639 to 1120 nM
O=C(/C=C/c1ccc2ncn(CCCl)c(=O)c2c1)NO [Compound 9b, (E)-3-(3-(2-Chloroethyl)-4-oxo-3,4-dihydroquinazolin-6-yl)-N-hydroxyacrylamide]			3970 ± 391	4040 ± 53	IC50 [5]: 3200 to 7040 nM; fold higher HDAC IC50 than that of SAHA [6]: ~20 fold
O=C(/C=C/c1ccc2ncn(CCO)c(=O)c2c1)NO [Compound 9c, (E)-N-Hydroxy-3-(3-(2-hydroxyethyl)-4-oxo-3,4-dihydroquinazolin-6-yl)acrylamide]		4309 ± 40	4650 ± 171	3670 ± 67	
CCCCn1cnc2ccc(/C=C/C(=O)NO)cc2c1=O [Compound 9e, (E)-3-(3-Butyl-4-oxo-3,4-dihydroquinazolin-6-yl)-N-hydroxyacrylamide]		1450 ± 15	1689 ± 14	1960 ± 103	
O=C(/C=C/c1ccc2ncn(Cc3ccc(F)cc3)c(=O)c2c1)NO [Compound 9k, (E)-3-(3-(4-Fluorobenzyl)-4-oxo-3,4-dihydroquinazolin-6-yl)-N-hydroxyacrylamide]		1370 ± 72	1040 ± 13	1900 ± 55	
CCCn1cnc2ccc(/C=C/C(=O)NO)cc2c1=O [Compound 9d, (E)-N-Hydroxy-3-(4-oxo-3-propyl-3,4-dihydroquinazolin-6-yl)acrylamide]		1620 ± 74	2870 ± 224		
O=C(/C=C/c1ccc2ncn(CC3CCCCC3)c(=O)c2c1)NO [Compound 9g, (E)-3-(3-(Cyclohexylmethyl)-4-oxo-3,4-dihydroquinazolin-6-yl)-N-hydroxyacrylamide]		1291 ± 3	997 ± 18		
O=C(/C=C/c1ccc2ncn(CC3CCCC3)c(=O)c2c1)NO [Compound 9f, (E)-3-(3-(Cyclopentylmethyl)-4-oxo-3,4-dihydroquinazolin-6-yl)-N-hydroxyacrylamide]		952 ± 29	1220 ± 100		

Further lines, with some results ahead:

IC50 [3] [nM]	SMILES	IC50 [1] [nM]	IC50 [2] [nM]	IC50 [4] [nM]	also measured
96 ± 6	O=C(/C=C/c1ccc2c(=O)n(CCO)cnc2c1)NO [Compound 10c, (E)-N-Hydroxy-3-(3-(2-hydroxyethyl)-4-oxo-3,4-dihydroquinazolin-7-yl)acrylamide]		5050 ± 399		
23	O=C(/C=C/c1ccc2c(=O)n(Cc3cccc(F)c3)cnc2c1)NO [Compound 10j, (E)-3-(3-(3-Fluorobenzyl)-4-oxo-3,4-dihydroquinazolin-7-yl)-N-hydroxyacrylamide]	1914 ± 6	1396 ± 9		
80	CCn1cnc2cc(/C=C/C(=O)NO)ccc2c1=O [Compound 10a, (E)-3-(3-Ethyl-4-oxo-3,4-dihydroquinazolin-7-yl)-N-hydroxyacrylamide]	2350 ± 56	1681 ± 8		
25 ± 1	O=C(/C=C/c1ccc2c(=O)n(Cc3ccccc3F)cnc2c1)NO [Compound 10i, (E)-3-(3-(2-Fluorobenzyl)-4-oxo-3,4-dihydroquinazolin-7-yl)-N-hydroxyacrylamide]	2100 ± 132	1950 ± 66		
42 ± 1	O=C(/C=C/c1ccc2c(=O)n(Cc3ccc(F)cc3)cnc2c1)NO [Compound 10k, (E)-3-(3-(4-Fluorobenzyl)-4-oxo-3,4-dihydroquinazolin-7-yl)-N-hydroxyacrylamide]	1490 ± 18	1490 ± 23		
47 ± 1	Cc1ccc(Cn2cnc3cc(/C=C/C(=O)NO)ccc3c2=O)cc1 [Compound 10m, (E)-N-Hydroxy-3-(3-(4-methylbenzyl)-4-oxo-3,4-dihydroquinazolin-7-yl)acrylamide]	769 ± 9	1210 ± 50	898 ± 47	induction of apoptosis (in words) [7]: substantially induced both early and late apoptosis; IC50 [5]: 671 to 1210 nM; fold more potent than SAHA [6]: 2- to 3 fold; cells in G2/M phase [8]: 30.11%
33	O=C(/C=C/c1ccc2c(=O)n(Cc3ccc(Cl)cc3)cnc2c1)NO [Compound 10l, (E)-3-(3-(4-Chlorobenzyl)-4-oxo-3,4-dihydroquinazolin-7-yl)-N-hydroxyacrylamide]	899 ± 45	767 ± 25		induction of apoptosis (in words) [7]: substantially induced both early and late apoptosis; IC50 [5]: 671 to 1210 nM; fold more potent than SAHA [6]: 2- to 3 fold; cells in G2/M phase [8]: 26.70%
22	O=C(/C=C/c1ccc2c(=O)n(CC3CCCC3)cnc2c1)NO [Compound 10f, (E)-3-(3-(Cyclopentylmethyl)-4-oxo-3,4-dihydroquinazolin-7-yl)-N-hydroxyacrylamide]	3160 ± 213		3210 ± 83	
40 ± 1	O=C(/C=C/c1ccc2c(=O)n(Cc3ccccc3)cnc2c1)NO [Compound 10h, (E)-3-(3-Benzyl-4-oxo-3,4-dihydroquinazolin-7-yl)-N-hydroxyacrylamide]	1180 ± 15	1320 ± 25		
322 ± 13	O=C(/C=C/c1ccc2c(=O)n(CCCl)cnc2c1)NO [Compound 10b, (E)-3-(3-(2-Chloroethyl)-4-oxo-3,4-dihydroquinazolin-7-yl)-N-hydroxyacrylamide]	7660 ± 691	5550 ± 231		
48 ± 2	CCCn1cnc2cc(/C=C/C(=O)NO)ccc2c1=O [Compound 10d, (E)-N-Hydroxy-3-(4-oxo-3-propyl-3,4-dihydroquinazolin-7-yl)acrylamide]	1900 ± 53	1500 ± 135		
29	CCCCn1cnc2cc(/C=C/C(=O)NO)ccc2c1=O [Compound 10e, (E)-3-(3-Butyl-4-oxo-3,4-dihydroquinazolin-7-yl)-N-hydroxyacrylamide]	2749 ± 16	2860 ± 94	3685 ± 27	
